Measurements as given in patent publication US20240041976A1, “COMPOSITION AND USE” (priority 2020, published 2024).
Like-named read-outs stand apart in the source and are kept apart here.

B1: Garvicin KS: three-peptide leaderless bacteriocin (GarA, GarB, GarC; SEQ ID NO:6-8), peptides synthesized (peptide, listed as Lactococcus garvieae)
chain 1: MGAIIKAGAKIVGKGVLGGGASWLGWNVGEKIWK
chain 2: MGAIIKAGAKIIGKGLLGGAAGGATYGGLKKIFG
chain 3: MGAIIKAGAKIVGKGALTGGGVWLAEKLFGGK

Experiments:
Format in all cases: cell-based, Staphylococcus aureus
S. aureus ATTC 29213 = assay: Planktonic cell growth inhibition assay (MIC50, liquid culture)
Description: Growth inhibition assays were performed in 96-well microtiter plates as described previously (Chi and Holo, 2018, supra). Briefly, 135 μl of TSB were dispensed in each well of a microtiter plate (according to the number of bacterial strains tested) except in the wells of the first row. The antimicrobials were diluted in TSB to working concentrations in a final volume of 285 μl and dispensed in the wells of the first row. The working concentrations were 100 μg/μl for garvicin KS, 10 μg/μl for micrococcin P1 and 1 mg/ml for penicillin G. From the first row, 150 μl of the antimicrobials were then serially diluted (two-fold dilutions) in a sequential fashion until the last row of the plate. Finally, 15 μl of a fresh O/N culture of each strain were added in the appropriate wells to reach a final volume of 150 μl in each well. The plates were then incubated at 37° C. for 24 h. The growth inhibition was expressed as minimum inhibitory concentration (MIC50), which refers to the minimum concentration of the antimicrobial needed to reduce at least 50% of the microbial growth compared to the untreated control. The MIC50 was assessed by optical density readings at 600 nm (O.D.600).
Synergistic interactions between antimicrobials were determined using the fractional inhibition concentration (FIC). The FIC values were calculated as follows: the sum of the FIC =FICa+FICb+FICc, where the FICa means MIC of A in combination/MIC of A alone, FICb means MIC of B in combination/MIC of B, and FICc means MIC of C in combination/MIC of C alone. Effects were considered as synergistic if FIC was ≤0.5 for two components mixture and ≤0.75 for three components mixture.

MRSA 43484 = assay: AAMP assay and checkerboard synergy; details: MRSA 43484; for MIC: Staphylococcus aureus, 24 h, read-out: MIC, single antimicrobial
Description: (§1) Antimicrobial activity was measured using the AAMP assay (Wiegand et al., 2008, Nat. Protoc., Vol. 3(2), p 163-175).
(§2) Synergy testing was done with a microtiter plate checkerboard assay as previously described (Orhan et al., 2005, J. Clin. Microbiol., Vol. 43(1), p 140-143). Briefly, equal amounts of antimicrobial A were applied on microtiter plate 1 in wells A1-H1 and then diluted two-fold to wells 2-12. Similarly, equal amounts of antimicrobial B were applied on microtiter plate 2 in wells A1-A12 and diluted two-fold in wells B-H. Volumes of 50 μl of antimicrobial A from each well of microtiter plate 1 were transferred into microtiter plate 3, except for wells H1-H12. Similarly, the same volumes were transferred from microtiter plate 2 into plate 3, except for wells A1-A8. A 100 μl volume of 25 times diluted ON bacterial culture of MRSA was transferred into each well of plate 3. A 50 μl volume of pure broth was added into each well in lines H1-H12 and A1-A8 which were used to estimate MIC values of pure substances (blank).
(§3) Three-component synergy was assessed by mixing the three components (100 μg of PenG, 50 μg of GarKS and 2.5 μg of MP1) into one well of a microtiter plate, compared with activity of individual antimicrobials on the same plate. The fractional inhibition concentration (FIC) which was used to define synergy was calculated as set forth in Example 1.

MRSA ATCC 33591-lux = assay: AAMP assay and checkerboard synergy; details: MRSA ATCC 33591-lux
Description: as §1, §2, §3

MRSA USA-300 = assay: AAMP assay and checkerboard synergy; details: MRSA USA-300; for MIC: Staphylococcus aureus, 24 h, read-out: MIC, single antimicrobial
Description: as §1, §2, §3

S. aureus LMG3026 = assay: AAMP assay (MIC), single components and formulation mixture; details: for MIC: Staphylococcus aureus, LMG3026, 24 h, read-out: MIC, single component
Description: as §1, §3

S. aureus LMG3242 = assay: as above; details: for MIC: Staphylococcus aureus, LMG3242, 24 h, read-out: MIC, single component
Description: as §1, §3

S. aureus LMG3255 = assay: as above; details: for MIC: Staphylococcus aureus, LMG3255, 24 h, read-out: MIC, single component
Description: as §1, §3

S. aureus LMG3258 = assay: as above; details: for MIC: Staphylococcus aureus, LMG3258, 24 h, read-out: MIC, single component
Description: as §1, §3

S. aureus LMG3263 = assay: as above; details: for MIC: Staphylococcus aureus, LMG3263, 24 h, read-out: MIC, single component
Description: as §1, §3

S. aureus LMG3264 = assay: as above; details: for MIC: Staphylococcus aureus, LMG3264, 24 h, read-out: MIC, single component
Description: as §1, §3

S. aureus LMG3265 = assay: as above; details: for MIC: Staphylococcus aureus, LMG3265, 24 h, read-out: MIC, single component
Description: as §1, §3

S. aureus LMG3266 = assay: as above; details: for MIC: Staphylococcus aureus, LMG3266, 24 h, read-out: MIC, single component
Description: as §1, §3

S. aureus LMG3271 = assay: as above; details: for MIC: Staphylococcus aureus, LMG3271, 24 h, read-out: MIC, single component
Description: as §1, §3

S. aureus LMG3307 = assay: as above; details: for MIC: Staphylococcus aureus, LMG3307, 24 h, read-out: MIC, single component
Description: as §1, §3

S. aureus LMG3314 = assay: as above; details: for MIC: Staphylococcus aureus, LMG3314, 24 h, read-out: MIC, single component
Description: as §1, §3

S. aureus LMG3322 = assay: as above; details: for MIC: Staphylococcus aureus, LMG3322, 24 h, read-out: MIC, single component
Description: as §1, §3

S. aureus LMG3328 = assay: as above; details: for MIC: Staphylococcus aureus, LMG3328, 24 h, read-out: MIC, single component
Description: as §1, §3

[1] = Staphylococcus aureus, ATTC29213, individual component, read-out: MIC50
[2] = garvicin KS + micrococcin P1 + penicillin G

Molecule	MIC50 (S. aureus ATTC 29213; [1])	MIC50 of the component in combination (S. aureus ATTC 29213; garvicin KS + micrococcin P1)	MIC50 of the component in combination (S. aureus ATTC 29213; [2])	MIC of the antimicrobial in comb. with GarKS (MRSA 43484)	MIC (MRSA 43484)	MIC of the antimicrobial in comb. with GarKS (MRSA ATCC 33591-lux)	MIC of the antimicrobial in comb. with GarKS (MRSA USA-300)	MIC (MRSA USA-300)	MIC (S. aureus LMG3026)	MIC (S. aureus LMG3242)	MIC (S. aureus LMG3255)	MIC (S. aureus LMG3258)	MIC (S. aureus LMG3263)	MIC (S. aureus LMG3264)	MIC (S. aureus LMG3265)	MIC (S. aureus LMG3266)	MIC (S. aureus LMG3271)	MIC (S. aureus LMG3307)	MIC (S. aureus LMG3314)	MIC (S. aureus LMG3322)	further results
C/C=C(\NC(=O)c1csc(-c2csc(-c3ccc4c(n3)-c3csc(n3)[C@H]([C@@H](C)O)NC(=O)c3csc(n3)[C@H](C(C)C)NC(=O)c3csc(n3)/C(=C/C)NC(=O)[C@H]([C@@H](C)O)NC(=O)c3csc-4n3)n2)n1)C(=O)NC[C@@H](C)O [MP1, micrococcin P1]	2.5 µg/mL	1.3 µg/mL	0.31 µg/mL	0.16 µg/mL	2.5 µg/mL	0.16 µg/mL	0.16 µg/mL	2.5 µg/mL	> 1.8 µg/mL	0.4 µg/mL	> 1.8 µg/mL	1.8 µg/mL	1.8 µg/mL	> 1.8 µg/mL	1.8 µg/mL	> 1.8 µg/mL	> 1.8 µg/mL	0.9 µg/mL	0.4 µg/mL	> 1.8 µg/mL	MIC (S. aureus LMG3328): 0.9 µg/mL
CC1(C)S[C@@H]2[C@H](NC(=O)Cc3ccccc3)C(=O)N2[C@H]1C(=O)O [Penicillin G]	130 µg/mL	–	31 µg/mL	16 µg/mL	< 2500 µg/mL	16 µg/mL	16 µg/mL	< 2500 µg/mL	> 2500 µg/mL	0.24 µg/mL	< 0.24 µg/mL	64 µg/mL	125 µg/mL	4 µg/mL	125 µg/mL	64 µg/mL	< 0.24 µg/mL	< 0.24 µg/mL	< 0.24 µg/mL	< 0.24 µg/mL	MIC50 of the component in combination (S. aureus ATTC 29213; garvicin KS + penicillin G): 130 µg/mL; MIC of GarKS in comb. antibiotic/GarKS/MP1 (MRSA 43484): 4 µg/mL; MIC of MP1 in comb. antibiotic/GarKS/MP1 (MRSA 43484): 0.08 µg/mL; MIC of MP1 in comb. with the labelled antibiotic (MRSA 43484): 0.3 µg/mL; MIC of the antibiotic in comb. with GarKS and MP1 (MRSA 43484): 8 µg/mL; MIC of the antibiotic in comb. with MP1 (MRSA 43484): 32 µg/mL; MIC of GarKS in comb. antibiotic/GarKS/MP1 (MRSA ATCC 33591-lux): 4 µg/mL; MIC of MP1 in comb. antibiotic/GarKS/MP1 (MRSA ATCC 33591-lux): 0.08 µg/mL; MIC of MP1 in comb. with the labelled antibiotic (MRSA ATCC 33591-lux): 0.16 µg/mL; MIC of the antibiotic in comb. with GarKS and MP1 (MRSA ATCC 33591-lux): 8 µg/mL; MIC of the antibiotic in comb. with MP1 (MRSA ATCC 33591-lux): 16 µg/mL; MIC (MRSA ATCC 33591-lux; Staphylococcus aureus, 24 h, read-out: MIC, single antimicrobial): < 2500 µg/mL; MIC of GarKS in comb. antibiotic/GarKS/MP1 (MRSA USA-300): 4 µg/mL; MIC of MP1 in comb. antibiotic/GarKS/MP1 (MRSA USA-300): 0.08 µg/mL; MIC of MP1 in comb. with the labelled antibiotic (MRSA USA-300): 0.3 µg/mL; MIC of the antibiotic in comb. with GarKS and MP1 (MRSA USA-300): 8 µg/mL; MIC of the antibiotic in comb. with MP1 (MRSA USA-300): 32 µg/mL; MIC (S. aureus LMG3328): < 0.24 µg/mL
B1	–	13 µg/mL	3.1 µg/mL	–	–	–	–	–	–	–	–	–	–	–	–	–	–	–	–	–	MIC50 of the component in combination (S. aureus ATTC 29213; garvicin KS + penicillin G): 13 µg/mL; MIC50 (S. aureus ATTC 29213; individual component): 25 µg/mL; MIC, single antimicrobial (MRSA 43484): 32 µg/mL; MIC, single antimicrobial (MRSA ATCC 33591-lux): 32 µg/mL; MIC, single antimicrobial (MRSA USA-300): 32 µg/mL; MIC, single component (S. aureus LMG3026; LMG3026): 16 µg/mL; MIC, single component (S. aureus LMG3242; LMG3242): 32 µg/mL; MIC, single component (S. aureus LMG3255; LMG3255): 32 µg/mL; MIC, single component (S. aureus LMG3258; LMG3258): 32 µg/mL; MIC, single component (S. aureus LMG3263; LMG3263): 16 µg/mL; MIC, single component (S. aureus LMG3264; LMG3264): 32 µg/mL; MIC, single component (S. aureus LMG3265; LMG3265): 16 µg/mL; MIC, single component (S. aureus LMG3266; LMG3266): 32 µg/mL; MIC, single component (S. aureus LMG3271; LMG3271): 32 µg/mL; MIC, single component (S. aureus LMG3307; LMG3307): 32 µg/mL; MIC, single component (S. aureus LMG3314; LMG3314): 32 µg/mL; MIC, single component (S. aureus LMG3322; LMG3322): 16 µg/mL; MIC, single component (S. aureus LMG3328; LMG3328): 32 µg/mL
